{"source": "patent US10472686B2", "about": "“Mechanisms of antimicrobial susceptibility” (Roche Molecular Systems, Inc., priority 2015, dated 2019)", "key": {"NDM-1-expressing E. coli [1]": {"test_system": "NDM-1-expressing E. coli", "assay": "NRTP luciferase live cell reporter assay, NDM-1 detection (Example 1)", "assay_type": "cell-based", "details": "2 hours at 37° C.; for luminescence signal (% RLU normalized to No Antibiotic): FIG. 2", "procedure": "An NDM-1 detection assay is produced using a luciferase-expressing non-replicative transduction particle specific to Enterobacteriaceae (as described in PCT/US2014/026536, Example 1), ertapenem, and the chelator Ethylenediaminetetraacetic acid (EDTA).\nA culture of a clinical isolate of an NDM-1-expressing E. coli was prepared in LB media and used to determine the response of the NRTP reporter in the presence of ertapenem, EDTA, and Zinc. The assay was prepared by mixing 50 μL of the cell culture at an OD600 of 0.02 to 50 μL of LB media and 100 μL of NRTP reagent prepared in a microwell plate. The assay was incubated for 2 hours at 37° C. under the following conditions: (1) No additives, (2) with the addition of ertapenem at 0.25 μg/mL, (3) with the addition of ertapenem and EDTA at 750 μg/mL, and (4) with the addition of ertapenem and Zinc sulfate at 70 μg/mL. After the incubation, the samples were assayed for luminescence after the injection of a nonanal reagent as a substrate for the live cell reporter using a Molecular Devices SpectraMax L luminometer.\nThe luminescence readings were then normalized to those produced by sample (1) and plotted as a percentage relative to sample (1) as shown in FIG. 2."}, "NDM-1-expressing E. coli [2]": {"test_system": "NDM-1-expressing E. coli", "assay_type": "cell-based", "details": "Smarticles assay, clinical isolates", "procedure": "(§1) Thus, the ability to quickly detect viable Gram-negative bacteria, determine their susceptibility to carbapenems, and distinguish between carbapenem resistance mechanisms could aid physicians in considering such therapeutic options in the future. […] In this study, a Smarticles™ assay was evaluated for its ability to detect carbapenem resistant E. coli and distinguish between NDM-1 and KPC-expressing organisms.\n(§2) Methods: 26 clinical isolates of E. coli, Klebsiella spp., Enterobacter spp., Citrobacter spp., Proteus spp., and S. marcescens were evaluated using the Smarticles™ assay and ertapenem disk diffusion. CRE isolates included organisms expressing blaKPC and blaNDM-1. The Smarticles™ assay was used with the addition of the chelating agent edetic acid (EDTA) and β-lactamase inhibitor boronic acid to scrutinize clinical isolates of E. coli expressing NDM-1 and KPC."}, "KPC-expressing E. coli [3]": {"test_system": "KPC-expressing E. coli", "assay": "Smarticles live cell luminescence assay with inhibitors (Example 4)", "assay_type": "cell-based", "details": "clinical isolates", "procedure": "as §1, §2"}, "[4]": {"test_system": "Class A carbapenemases (e.g. KPC)", "details": "background statement; cited from earlier work"}, "[5]": {"test_system": "Class B carbapenemases (e.g. NDM-1)", "details": "background statement; cited from earlier work"}, "KPC-expressing E. coli [6]": {"test_system": "KPC-expressing E. coli", "assay": "NRTP luciferase live cell reporter assay, KPC detection (Example 2)", "assay_type": "cell-based", "details": "2 hours at 37° C.", "procedure": "In another embodiment of the invention, a KPC detection assay is produced using a luciferase-expressing non-replicative transduction particle specific to Enterobacteriaceae as described in PCT/US2014/026536, Example 1, ertapenem and the β-lactamase inhibitor boronic acid.\nA culture of a clinical isolate of a KPC-expressing E. coli was prepared in LB media and used to determine the response of the NRTP reporter in the presence of ertapenem, and boronic acid. The replicates of the assay were prepared mixing 50 μL of the cell culture at an OD600 of 0.02 to 50 μL of LB media and 100 μL of NRTP reagent prepared in a microwell plate. The assay was incubated for 2 hours at 37° C. under the following conditions: (1) No additives, (2) with the addition of ertapenem at 1 μg/mL, and (3) with the addition of ertapenem and phenyl boronic acid 400 μg/mL. After the incubation, the samples were assayed for luminescence after the injection of a nonanal reagent as a substrate for the live cell reporter using a Molecular Devices SpectraMax L luminometer.\nThe luminescence readings were then normalized to those produced by sample (1) and plotted as the average percentage relative to sample (1) as shown in FIG. 1."}}, "data": [{"smiles": "O=C(O)CN(CCN(CC(=O)O)CC(=O)O)CC(=O)O", "note": "[EDTA, Ethylenediaminetetraacetic acid]", "values": [{"measurement": "luminescence signal (% RLU normalized to No Antibiotic)", "setting": "NDM-1-expressing E. coli [1]; ertapenem 0.25 μg/mL and EDTA 750 μg/mL", "value": "significantly decreased"}, {"measurement": "assay signal in the presence of the inhibitor", "setting": "NDM-1-expressing E. coli [2]", "value": "inhibited"}, {"measurement": "assay signal in the presence of the inhibitor", "setting": "KPC-expressing E. coli [3]", "value": "not inhibited"}]}, {"smiles": "O=C(NC1CCNCC1)[C@@H]1CC[C@@H]2CN1C(=O)N2OS(=O)(=O)O", "note": "[Relebactam]", "values": [{"measurement": "activity against Class A carbapenemases", "setting": "[4]", "value": "shown activity"}, {"measurement": "activity against Class B carbapenemases", "setting": "[5]", "value": "not against"}]}, {"smiles": "O=S(=O)([O-])[O-].[Zn+2]", "note": "[Zinc, Zinc sulfate]", "values": [{"measurement": "luminescence signal (% RLU normalized to No Antibiotic)", "setting": "NDM-1-expressing E. coli [1]; ertapenem 0.25 μg/mL and Zinc sulfate 70 μg/mL", "value": "significantly increased"}]}, {"smiles": "OB(O)c1ccccc1", "note": "[boronic acid, phenyl boronic acid]", "values": [{"measurement": "luminescence signal (% RLU normalized to No Antibiotic)", "setting": "KPC-expressing E. coli [6]; ertapenem 1 μg/mL and phenyl boronic acid 400 μg/mL", "value": "significantly decreased"}, {"measurement": "assay signal in the presence of the inhibitor", "setting": "NDM-1-expressing E. coli [2]", "value": "not inhibited"}, {"measurement": "assay signal in the presence of the inhibitor", "setting": "KPC-expressing E. coli [3]", "value": "inhibited"}]}, {"smiles": "C[C@@H](O)[C@H]1C(=O)N2C(C(=O)O)=C(S[C@@H]3CN[C@H](C(=O)Nc4cccc(C(=O)O)c4)C3)[C@H](C)[C@H]12", "note": "[ertapenem]", "values": [{"measurement": "luminescence signal (% RLU normalized to No Antibiotic)", "setting": "NDM-1-expressing E. coli [1]; ertapenem 0.25 μg/mL alone", "value": "not significantly decreased"}, {"measurement": "susceptibility phenotype", "setting": "NDM-1-expressing E. coli [1]; ertapenem 0.25 μg/mL", "value": "non-susceptible"}, {"measurement": "luminescence signal (% RLU normalized to No Antibiotic)", "setting": "KPC-expressing E. coli [6]; ertapenem 1 μg/mL alone", "value": "not significantly decreased"}, {"measurement": "susceptibility phenotype", "setting": "KPC-expressing E. coli [6]; ertapenem 1 μg/mL", "value": "non-susceptible"}]}]}
